Read-outs that look alike come from different tables or passages of the source.
Tests used:
[1] = test system: Amyotrophic Lateral Sclerosis (ALS); details: ALS patients; cited from earlier work
rat brain granular cells = details: for protection of brain granular cells: 6 hour incubation, MTT; for protective effect on neuron survival: neurons cotreated with PDE4 inhibitor, both excitotoxicity inducers (NMDA/serine and kainate), FIGS. 2 to 10
cortical neurons = assay: Excitotoxicity protection in primary cortical cell cultures (MTT test); assay type: cell-based, rat; details: 6 hour incubation
Description: Sixteen-day-old embryos from Wistar rats were removed and the cortex dissected. […] After four days of culture, half of the medium was replaced by minimum essential medium supplemented with 5% horse serum and 2 mM glutamine. On the same day, 10 μM 5-fluoro-2-deoxyuridine, an antimitotic agent, was added. After 7 and 11 days of culture, half of the medium was replaced by conditioned medium composed of MEM supplemented with 5% horse serum and 2 mM glutamine; this medium was passed overnight on a layer of cortical astrocytes before use.
Toxicity was measured with an MTT test.

[2] = NMDA/serine treatment (100 μM NMDA + 10 μM D-serine)
[3] = kainate-induced toxicity (50 μM kainate)
[4] = NMDA/serine treatment (20 μM NMDA + 10 μM D-serine)

SMILES	improvement in the measures of muscular strength [1]	protection of brain granular cells (rat brain granular cells; [2])	protection of brain granular cells (rat brain granular cells; [3])	protective effect on neuron survival (rat brain granular cells)	protective effect on cortical neurons (cortical neurons; [4])	protective effect on cortical neurons (cortical neurons; [3])
Nc1nc2ccc(OC(F)(F)F)cc2s1 [Riluzole]	does not provide improvement	–	–	–	–	–
CCOC(=O)c1cnc2c(cnn2CC)c1NN=C(C)C [etazolate]	–	60%	57%	dose-dependent protective effect	33%	25%
CC(=O)CCCCn1c(=O)c2c(ncn2C)n(C)c1=O [pentoxifylline]	–	43%	33%	dose-dependent protective effect	50%	66%

Source: patent US20050043319A1, “Molecular target of neurotoxicity” (EXONHIT THERAPEUTICS SA, priority 2001, published 2005)
